Measured values: US20230131402A1, “SPIRO-LACTAM NMDA RECEPTOR MODULATORS AND USES THEREOF” (Aptinyx Inc., priority 2016, published 2023)

Tests used:
[1] = molecular target: T1, NMDAR2A (Homo sapiens, UniProt Q12879); test: [3H]MK-801 binding, NMDAR2A expressing HEK cell membranes; format: biochemical; conditions: 50 μM glutamate; for Emax: read-out: NMDAR2A A: % maximal [3H]MK-801 binding relative to 1 mM glycine; for EC50: read-out: NMDAR2A B: log EC50 (converted)
T1 construct: expressed in transfected cells; host or cells: HEK cells (membrane extract)
T1 sequence (Q12879 23-1464, species assumed, other chains not shown): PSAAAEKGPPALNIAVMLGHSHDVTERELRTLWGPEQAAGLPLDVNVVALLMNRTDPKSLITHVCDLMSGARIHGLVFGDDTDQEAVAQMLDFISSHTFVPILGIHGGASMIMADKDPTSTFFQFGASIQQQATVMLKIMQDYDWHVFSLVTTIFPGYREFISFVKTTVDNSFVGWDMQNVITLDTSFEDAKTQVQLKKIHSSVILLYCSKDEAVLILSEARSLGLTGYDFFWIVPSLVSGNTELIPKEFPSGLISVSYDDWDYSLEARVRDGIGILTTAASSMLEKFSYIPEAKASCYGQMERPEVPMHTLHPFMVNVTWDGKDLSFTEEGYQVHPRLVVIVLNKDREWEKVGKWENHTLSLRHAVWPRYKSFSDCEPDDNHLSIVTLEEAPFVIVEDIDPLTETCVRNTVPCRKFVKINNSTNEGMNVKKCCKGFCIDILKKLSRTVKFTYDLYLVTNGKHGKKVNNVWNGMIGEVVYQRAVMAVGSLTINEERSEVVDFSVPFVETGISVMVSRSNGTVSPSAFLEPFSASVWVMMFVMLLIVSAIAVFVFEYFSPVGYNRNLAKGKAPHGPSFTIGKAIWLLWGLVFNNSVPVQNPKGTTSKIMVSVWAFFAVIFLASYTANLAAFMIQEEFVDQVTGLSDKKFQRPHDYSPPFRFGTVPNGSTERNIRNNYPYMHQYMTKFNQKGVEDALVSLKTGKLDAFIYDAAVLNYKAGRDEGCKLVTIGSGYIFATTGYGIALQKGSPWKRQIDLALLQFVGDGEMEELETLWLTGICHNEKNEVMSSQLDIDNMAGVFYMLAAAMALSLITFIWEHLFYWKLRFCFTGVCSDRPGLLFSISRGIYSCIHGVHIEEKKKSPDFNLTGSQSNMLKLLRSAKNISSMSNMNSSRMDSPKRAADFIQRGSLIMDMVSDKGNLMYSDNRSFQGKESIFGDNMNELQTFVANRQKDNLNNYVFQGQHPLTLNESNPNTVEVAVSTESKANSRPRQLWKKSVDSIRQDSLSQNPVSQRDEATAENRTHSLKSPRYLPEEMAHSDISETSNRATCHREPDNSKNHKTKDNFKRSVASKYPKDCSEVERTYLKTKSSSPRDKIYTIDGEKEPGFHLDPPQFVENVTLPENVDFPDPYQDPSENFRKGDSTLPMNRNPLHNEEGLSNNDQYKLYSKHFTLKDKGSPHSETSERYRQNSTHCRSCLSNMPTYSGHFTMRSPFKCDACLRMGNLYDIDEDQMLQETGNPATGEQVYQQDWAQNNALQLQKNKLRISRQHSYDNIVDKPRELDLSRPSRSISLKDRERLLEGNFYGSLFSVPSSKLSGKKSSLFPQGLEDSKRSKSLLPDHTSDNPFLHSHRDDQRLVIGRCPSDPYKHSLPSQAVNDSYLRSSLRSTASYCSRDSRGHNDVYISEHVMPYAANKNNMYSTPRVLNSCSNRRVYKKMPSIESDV
Method: (§1) Assays were conducted as described by Moskal et al., “GLYX-13: a monoclonal antibody-derived peptide that acts as an N-methyl-D-aspartate receptor modulator,” Neuropharmacology, 49, 1077-87, 2005. These studies were designed to determine if the test compounds act to facilitate NMDAR activation in NMDAR2A, NMDAR2B, NMDAR2C or NMDAR2D expressing HEK cell membranes as measured by increases in [^3H]MK-801 binding.
(§2) In the assay, 300 μg of NMDAR expressing HEK cell membrane extract protein was preincubated for 15 minutes at 25° C. in the presence of saturating concentrations of glutamate (50 μM) and varying concentrations of test compound (1×10^−15M−1×10^−7M), or 1 mM glycine. Following the addition of 0.3 μCi of [^3H]MK-801 (22.5 Ci/mmol), reactions were again incubated for 15 minutes at 25° C. (nonequilibrium conditions). Bound and free [^3H]MK-801 were separated via rapid filtration using a Brandel apparatus.
(§3) In analyzing the data, the DPM (disintegrations per minute) of [^3H]MK-801 remaining on the filter were measured for each concentration of test compound or for 1 mM glycine. The DPM values for each concentration of a ligand (N=2) were averaged. The baseline value was determined from the best fit curve of the DPM values modeled using the GraphPad program and the log(agonist) vs. response(three parameters) algorithm was then subtracted from all points in the dataset. The % maximal [^3H]MK-801 binding was then calculated relative to that of 1 mM glycine: all baseline subtracted DPM values were divided by the average value for 1 mM glycine. The EC50 and % maximal activity were then obtained from the best fit curve of the % maximal [^3H]MK-801 binding data modelled using the GraphPad program and the log(agonist) vs. response(three parameters) algorithm.
(§4) The tables below summarize the results for the wild type NMDAR agonists NMDAR2A, NMDAR2B, NMDAR2C, and NMDAR2D, and whether the compound is not an agonist (−), is an agonist (+), or is a strong agonist (++), where column A is based on the % maximal [^3H]MK-801 binding relative to 1 mM glycine (−=0; <100%=+; and >100%=++); and column B is based on log EC50 values (0=−; ≥1×10^−9M (e.g., −8)=+; and <1×10^−9M (e.g., −10)=++).

[2] = molecular target: T2, NMDAR2C (Homo sapiens, UniProt Q14957); test: [3H]MK-801 binding, NMDAR2C expressing HEK cell membranes; format: biochemical; conditions: 50 μM glutamate; for EC50: read-out: NMDAR2C B: log EC50 (converted)
T2 construct: expressed in transfected cells; host or cells: HEK cells (membrane extract)
T2 sequence (Q14957 20-1233, species assumed, other chains not shown): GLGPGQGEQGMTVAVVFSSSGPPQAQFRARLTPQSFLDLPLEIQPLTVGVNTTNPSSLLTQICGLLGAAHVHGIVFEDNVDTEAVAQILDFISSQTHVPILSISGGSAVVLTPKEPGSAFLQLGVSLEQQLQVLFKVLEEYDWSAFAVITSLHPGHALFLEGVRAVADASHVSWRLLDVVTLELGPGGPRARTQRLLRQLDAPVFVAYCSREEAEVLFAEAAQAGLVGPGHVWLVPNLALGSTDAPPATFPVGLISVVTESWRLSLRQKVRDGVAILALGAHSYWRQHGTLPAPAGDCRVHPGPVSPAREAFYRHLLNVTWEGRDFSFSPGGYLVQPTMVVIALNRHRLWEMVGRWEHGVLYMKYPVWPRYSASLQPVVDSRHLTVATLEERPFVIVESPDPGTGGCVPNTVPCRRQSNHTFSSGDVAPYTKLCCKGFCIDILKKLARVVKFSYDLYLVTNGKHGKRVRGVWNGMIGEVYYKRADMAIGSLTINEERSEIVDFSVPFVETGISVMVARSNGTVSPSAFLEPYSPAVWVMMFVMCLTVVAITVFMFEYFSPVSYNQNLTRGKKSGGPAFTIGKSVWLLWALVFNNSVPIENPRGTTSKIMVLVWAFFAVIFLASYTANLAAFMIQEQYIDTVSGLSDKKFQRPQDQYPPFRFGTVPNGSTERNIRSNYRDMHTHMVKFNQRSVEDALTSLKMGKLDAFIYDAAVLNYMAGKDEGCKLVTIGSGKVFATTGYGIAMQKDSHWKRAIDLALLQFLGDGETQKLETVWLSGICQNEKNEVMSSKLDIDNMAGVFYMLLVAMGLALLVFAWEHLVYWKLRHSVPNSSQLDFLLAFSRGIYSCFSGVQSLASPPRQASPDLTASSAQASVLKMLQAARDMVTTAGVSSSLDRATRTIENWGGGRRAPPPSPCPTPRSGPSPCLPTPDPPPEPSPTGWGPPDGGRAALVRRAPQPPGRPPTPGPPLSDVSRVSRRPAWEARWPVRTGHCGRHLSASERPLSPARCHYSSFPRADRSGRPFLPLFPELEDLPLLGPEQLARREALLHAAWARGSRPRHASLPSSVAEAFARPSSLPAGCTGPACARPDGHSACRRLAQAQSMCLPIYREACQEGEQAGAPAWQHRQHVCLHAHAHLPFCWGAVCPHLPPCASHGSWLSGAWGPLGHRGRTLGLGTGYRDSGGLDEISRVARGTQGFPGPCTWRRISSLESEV
Method: as §1, §2, §3, §4

[3] = molecular target: T3, NMDAR2D (Homo sapiens, UniProt O15399+Q05586); test: [3H]MK-801 binding, NMDAR2D expressing HEK cell membranes; format: biochemical; conditions: 50 μM glutamate; for EC50: read-out: NMDAR2D B: log EC50 (converted); for Emax: read-out: NMDAR2D A: % maximal [3H]MK-801 binding relative to 1 mM glycine
T3 construct: expressed in transfected cells; host or cells: HEK cells (membrane extract)
T3 sequence (O15399 28-1336, species assumed, other chains not shown): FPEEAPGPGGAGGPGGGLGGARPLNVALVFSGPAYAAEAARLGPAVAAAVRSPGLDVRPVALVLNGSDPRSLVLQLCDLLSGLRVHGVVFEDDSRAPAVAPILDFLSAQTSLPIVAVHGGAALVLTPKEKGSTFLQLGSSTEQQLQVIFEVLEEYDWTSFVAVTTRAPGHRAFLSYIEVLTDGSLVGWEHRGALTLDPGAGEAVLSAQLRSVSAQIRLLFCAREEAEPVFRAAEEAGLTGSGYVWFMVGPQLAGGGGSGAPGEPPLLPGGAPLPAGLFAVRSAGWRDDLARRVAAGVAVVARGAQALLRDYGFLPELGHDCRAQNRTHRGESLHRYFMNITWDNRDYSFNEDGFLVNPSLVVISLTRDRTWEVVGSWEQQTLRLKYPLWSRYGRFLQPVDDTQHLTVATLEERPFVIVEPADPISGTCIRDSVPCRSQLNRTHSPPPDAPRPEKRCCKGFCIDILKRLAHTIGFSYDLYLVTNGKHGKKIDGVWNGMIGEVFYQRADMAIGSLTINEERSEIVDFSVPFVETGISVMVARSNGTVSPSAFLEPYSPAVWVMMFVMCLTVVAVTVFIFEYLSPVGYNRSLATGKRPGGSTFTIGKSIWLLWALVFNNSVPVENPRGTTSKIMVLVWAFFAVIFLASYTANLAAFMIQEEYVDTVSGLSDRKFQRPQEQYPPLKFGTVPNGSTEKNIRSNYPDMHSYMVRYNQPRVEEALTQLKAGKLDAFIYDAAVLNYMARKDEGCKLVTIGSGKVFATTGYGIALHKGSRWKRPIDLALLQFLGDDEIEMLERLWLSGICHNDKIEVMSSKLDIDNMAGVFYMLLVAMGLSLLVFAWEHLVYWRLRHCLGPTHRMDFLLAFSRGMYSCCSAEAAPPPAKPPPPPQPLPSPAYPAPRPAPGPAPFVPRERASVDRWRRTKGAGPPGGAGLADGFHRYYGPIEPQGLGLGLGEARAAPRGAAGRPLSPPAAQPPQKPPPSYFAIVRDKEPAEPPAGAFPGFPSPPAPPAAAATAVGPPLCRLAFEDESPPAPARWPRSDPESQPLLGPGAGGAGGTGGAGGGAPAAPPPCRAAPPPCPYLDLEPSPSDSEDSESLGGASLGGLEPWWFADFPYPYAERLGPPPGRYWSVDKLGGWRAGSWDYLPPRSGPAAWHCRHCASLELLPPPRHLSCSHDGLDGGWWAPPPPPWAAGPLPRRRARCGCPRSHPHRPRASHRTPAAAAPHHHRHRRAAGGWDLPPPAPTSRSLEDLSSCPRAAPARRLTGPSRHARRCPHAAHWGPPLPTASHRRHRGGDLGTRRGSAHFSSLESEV
Method: as §1, §2, §3, §4

[4] = molecular target: T4, NMDAR2D (Homo sapiens, UniProt O15399); test: as above; format: biochemical; conditions: 50 μM glutamate; for EC50: read-out: NMDAR2D B: log EC50 (converted)
T4 construct: expressed in transfected cells; host or cells: HEK cells (membrane extract)
T4 sequence (O15399 28-1336, species assumed, other chains not shown): as above
Method: as §1, §2, §3, §4

[5] = molecular target: T5, NMDAR2B (Homo sapiens, UniProt Q13224); test: [3H]MK-801 binding, NMDAR2B expressing HEK cell membranes; format: biochemical; conditions: 50 μM glutamate; for Emax: read-out: NMDAR2B A: % maximal [3H]MK-801 binding relative to 1 mM glycine; for EC50: read-out: NMDAR2B B: log EC50 (converted)
T5 construct: expressed in transfected cells; host or cells: HEK cells (membrane extract)
Method: as §1, §2, §3, §4

[6] = test system: rats' response (reduced floating time); test: Porsolt forced swim test; format: in vivo, Sprague Dawley rats; conditions: 1 h post-dose, 0.1 mg/kg
Method: A non-clinical in vivo pharmacology study (Porsolt assay) was performed to measure antidepressant-like effects. A negative control (0.5% sodium carboxymethyl cellulose in 0.9% sterile saline vehicle) and a positive control (fluoxetine) are shown for comparison against test compound. The study allowed for the evaluation of the effects of each compound on the Porsolt forced swim test as assessed by the rats' response (reduced floating time) during a 5-minute swimming test.
Male 2-3 month old Sprague Dawley rats were used (Harlan, Indianapolis, Ind.). Rats were housed in Lucite cages with aspen wood chip bedding, maintained on a 12:12 light:dark cycle (lights on at 5 AM), and given ad libitum access to Purina lab chow (USA) and tap water throughout the study.
The Porsolt forced swim test adapted for use in rats was performed as described by Burgdorf et al., (The long-lasting antidepressant effects of rapastinel (GLYX-13) are associated with a metaplasticity process in the medial prefrontal cortex and hippocampus. Neuroscience 308:202-211, 2015). Animals were placed in a 46 cm tall×20 cm in diameter clear glass tube filled to 30 cm with tap water (23±1° C.) for 15 min on the first day (habituation) and 5 min on the subsequent test day. Positive control fluoxetine was dosed 3 times (24 h, 5 h and 1 h) prior to testing. Animals were tested 1 h post-dosing with the test compounds or vehicle. Animals received a 15 min habituation session 1 day before the 5 min test. A subset of compounds tested at 1 h post-dosing were retested at 1 wk post-dosing in the same sets of animals. Water was changed after every other animal. Animals were videotaped, and floating time as defined as the minimal amount of effort required to keep the animals head above water was scored offline by a blinded experimenter with high inter-rater reliability (Pearson's r>0.9).
Each compound tested at dose level shown. Significance vs. vehicle group for each experiment is marked. […] A compound marked “No” was not statistically significant from vehicle. Data was averaged for test compound and vehicle groups (N approximately 8 per group) and the percent reduction in floating for group treated with test compound relative to group treated with vehicle is shown.

[7] = Oral pharmacokinetics (plasma, brain, CSF); conditions: rat, 10 mg/kg, per os
Method: Plasma, brain, and CSF samples were analyzed at various time points over a 24 hour period.

[8] = IV pharmacokinetics; format: in vivo, Sprague Dawley rats; conditions: Sprague Dawley, rat, in vivo, iv, 2 mg/kg, normal saline (compounds marked * in 1% NMP and 99% normal saline)
Description: The table below summarizes the results of the IV pharmacokinetics.

SMILES: CN1CCNC2(CNC2=O)C1 (centres unmarked) [EH-1, 8-Methyl-2,5,8-Triazaspiro[3.5]Nonan-1-One]
- Emax [1]: < 100%
- EC50 [1]: < 1 nM
- NMDAR2C A: % maximal [3H]MK-801 binding relative to 1 mM glycine [2]: − (−=0)
- EC50 [3]: < 1 nM
- NMDAR2D A: % maximal [3H]MK-801 binding relative to 1 mM glycine [4]: + (<100%=+)
- Emax [5]: < 100%
- EC50 [5]: < 1 nM

SMILES: C[C@@H](O)[C@H](N)C(=O)N1CCN(Cc2ccccc2)C2(CNC2=O)C1 (single isomer, unassigned) [EL-2, 8-(L-Threonyl)-5-Benzyl-2,5,8-Triazaspiro[3.5]Nonan-1-One]
- NMDAR2C A: % maximal [3H]MK-801 binding relative to 1 mM glycine [2]: + (<100%=+)
- EC50 [2]: < 1 nM
- Emax [3]: 0%
- EC50 [5]: < 1 nM

SMILES: CC(C)(C)OC(=O)N1CCN(C(=O)OC(C)(C)C)C2(CNC2=O)C1 (single isomer, unassigned) [EE-1, Di-Tert-Butyl 1-Oxo-2,5,8-Triazaspiro[3.5]Nonane-5,8-Dicarboxylate]
- Emax [1]: 0%
- NMDAR2C A: % maximal [3H]MK-801 binding relative to 1 mM glycine [2]: − (−=0)
- Emax [3]: 0%
- Emax [5]: < 100%
- EC50 [5]: < 1 nM

SMILES: CC(C)(C)OC(=O)N1CCNC2(CNC2=O)C1 (single isomer, unassigned) [EB-2, Tort-Butyl 1-Oxo-2,5,8-Triazaspiro[3.5]Nonane-8-Carboxylate]
- NMDAR2A A: % maximal [3H]MK-801 binding relative to 1 mM glycine [1]: + (<100%=+)
- EC50 [1]: < 1 nM
- NMDAR2C A: % maximal [3H]MK-801 binding relative to 1 mM glycine [2]: + (<100%=+)
- EC50 [2]: < 1 nM
- NMDAR2D A: % maximal [3H]MK-801 binding relative to 1 mM glycine [4]: + (<100%=+)
- EC50 [4]: < 1 nM
- NMDAR2B A: % maximal [3H]MK-801 binding relative to 1 mM glycine [5]: + (<100%=+)
- EC50 [5]: > 1 nM

SMILES: CN1CCN(C(=O)OC(C)(C)C)CC12CN(CC(N)=O)C2=O (centres unmarked) [ER-117]
- Emax [1]: 0%
- % reduction in float time ([6]; relative to vehicle group): 55.0%
- Significance vs. vehicle ([6]; Yes = p<=0.05 from vehicle): Yes
- NMDAR2C A: % maximal [3H]MK-801 binding relative to 1 mM glycine [2]: − (−=0)
- Emax [3]: < 100%
- EC50 [3]: < 1 nM
- bioavailability ([7]; Sprague Dawley, plasma, po, % F): 69%
- AUC(0-t) ([7]; Sprague Dawley, plasma, po, AUClast, normal saline (compounds marked * in 1% NMP and 99% normal saline)): 2.05 µg·h/mL
- Cmax ([7]; Sprague Dawley, plasma, po, Cmax, normal saline (compounds marked * in 1% NMP and 99% normal saline)): 1.54 µg/mL
- Tmax ([7]; Sprague Dawley, plasma, po, Tmax, normal saline (compounds marked * in 1% NMP and 99% normal saline)): 30 min
- CSF Cmax ([7]; CSF): 0.232 µg/mL
- Brain Cmax ([7]; brain): 0.121 µg/mL
- Emax [5]: < 100%
- EC50 [5]: < 1 nM
- AUC(0-t) [8]: 0.593 µg·h/mL
- clearance [8]: 3.43 L/h/kg
- half-life [8]: 31.2 min
- C0 ([8]; read-out: C0): 1.67 µg/mL
- Vd ([8]; read-out: Vss): 1.44 L/kg

SMILES: CC(C)(C)OC(=O)N1CCN(C(=O)OC(C)(C)C)C2(CNC2=O)C1 (single isomer, unassigned) [EE-2, Di-Tert-Butyl 1-Oxo-2,5,8-Triazaspiro[3.5]Nonane-5,8-Dicarboxylate]
- NMDAR2A A: % maximal [3H]MK-801 binding relative to 1 mM glycine [1]: − (−=0)
- NMDAR2C A: % maximal [3H]MK-801 binding relative to 1 mM glycine [2]: + (<100%=+)
- EC50 [2]: < 1 nM
- NMDAR2D A: % maximal [3H]MK-801 binding relative to 1 mM glycine [4]: − (−=0)
- NMDAR2B A: % maximal [3H]MK-801 binding relative to 1 mM glycine [5]: + (<100%=+)
- EC50 [5]: < 1 nM

SMILES: CN1CCN(C(=O)OC(C)(C)C)CC12CN(CC(N)=O)C2=O (centres unmarked) [ER-118]
- NMDAR2A A: % maximal [3H]MK-801 binding relative to 1 mM glycine [1]: − (−=0)
- NMDAR2C A: % maximal [3H]MK-801 binding relative to 1 mM glycine [2]: − (−=0)
- NMDAR2D A: % maximal [3H]MK-801 binding relative to 1 mM glycine [4]: ++ (>100%=++)
- EC50 [4]: < 1 nM
- NMDAR2B A: % maximal [3H]MK-801 binding relative to 1 mM glycine [5]: + (<100%=+)
- EC50 [5]: < 1 nM

SMILES: CN1CCNC2(CNC2=O)C1 (centres unmarked) [EH-2, 8-Methyl-2,5,8-Triazaspiro[3.5]Nonan-1-One]
- NMDAR2A A: % maximal [3H]MK-801 binding relative to 1 mM glycine [1]: + (<100%=+)
- EC50 [1]: < 1 nM
- NMDAR2C A: % maximal [3H]MK-801 binding relative to 1 mM glycine [2]: − (−=0)
- NMDAR2D A: % maximal [3H]MK-801 binding relative to 1 mM glycine [4]: − (−=0)
- NMDAR2B A: % maximal [3H]MK-801 binding relative to 1 mM glycine [5]: + (<100%=+)
- EC50 [5]: < 1 nM

SMILES: CC(C)(C)OC(=O)N1CCNC2(CNC2=O)C1 (single isomer, unassigned) [EB-1, Tort-Butyl 1-Oxo-2,5,8-Triazaspiro[3.5]Nonane-8-Carboxylate]
- Emax [1]: < 100%
- EC50 [1]: < 1 nM
- NMDAR2C A: % maximal [3H]MK-801 binding relative to 1 mM glycine [2]: + (<100%=+)
- EC50 [2]: > 1 nM
- Emax [3]: < 100%
- EC50 [3]: < 1 nM
- NMDAR2B A: % maximal [3H]MK-801 binding relative to 1 mM glycine [5]: − (−=0)
